From ChEMBL document CHEMBL4828714, “Mutasynthesis of Antibacterial Halogenated Actinomycin Analogues” (J Nat Prod, 2021)
Values after ≈ are worked out from the molar mass of the structure shown.

Legend:
RKO = assay: Cytotoxicity against human RKO cells assessed as growth inhibition incubated for 68 hrs by MTT assay; type: functional, cell-based
Staphylococcus aureus [1] = assay: Antimicrobial activity against Staphylococcus aureus Sau 718306 assessed as inhibition of bacterial growth incubated for 16 to 18 hrs by broth micro dilution technique; type: functional; conditions: time 16-18 hrs
Staphylococcus aureus [2] = assay: Antimicrobial activity against Staphylococcus aureus CCAM 3090 assessed as inhibition of bacterial growth incubated for 16 to 18 hrs by broth micro dilution technique; type: functional; conditions: time 16-18 hrs
Micrococcus luteus = assay: Antimicrobial activity against Micrococcus luteus ML01 assessed as inhibition of bacterial growth incubated for 16 to 18 hrs by broth micro dilution technique; type: functional; conditions: time 16-18 hrs
Candida albicans = assay: Antimicrobial activity against Candida albicans assessed as inhibition of bacterial growth incubated for 16 to 18 hrs by broth micro dilution technique; type: functional; conditions: time 16-18 hrs
MCF7 = assay: Cytotoxicity against human MCF7 cells assessed as growth inhibition incubated for 68 hrs by MTT assay; type: functional, cell-based; conditions: MCF7, 68 h
Staphylococcus aureus [3] = assay: Antimicrobial activity against Staphylococcus aureus Sau 16162 assessed as inhibition of bacterial growth incubated for 16 to 18 hrs by broth micro dilution technique; type: functional; conditions: time 16-18 hrs
Staphylococcus aureus [4] = assay: Antimicrobial activity against Staphylococcus aureus Sau 6917 assessed as inhibition of bacterial growth incubated for 16 to 18 hrs by broth micro dilution technique; type: functional; conditions: time 16-18 hrs
Staphylococcus aureus [5] = assay: Antimicrobial activity against Staphylococcus aureus Sau 991 assessed as inhibition of bacterial growth incubated for 16 to 18 hrs by broth micro dilution technique; type: functional; conditions: time 16-18 hrs
Enterococcus faecalis = assay: Antimicrobial activity against Enterococcus faecalis ATCC 29212 assessed as inhibition of bacterial growth incubated for 16 to 18 hrs by broth micro dilution technique; type: functional; conditions: time 16-18 hrs
A549 = assay: Cytotoxicity against human A549 cells assessed as growth inhibition incubated for 68 hrs by MTT assay; type: functional, cell-based; conditions: A549, 68 h
Enterococcus faecium = assay: Antimicrobial activity against Enterococcus faecium ATCC 35682 assessed as inhibition of bacterial growth incubated for 16 to 18 hrs by broth micro dilution technique; type: functional; conditions: time 16-18 hrs
Staphylococcus aureus [6] = assay: Antimicrobial activity against Staphylococcus aureus Sau 745524 assessed as inhibition of bacterial growth incubated for 16 to 18 hrs by broth micro dilution technique; type: functional; conditions: time 16-18 hrs
Staphylococcus aureus [7] = assay: Antimicrobial activity against Staphylococcus aureus ATCC 29213 assessed as inhibition of bacterial growth incubated for 16 to 18 hrs by broth micro dilution technique; type: functional; conditions: time 16-18 hrs
Bacillus thuringiensis = assay: Antimicrobial activity against Bacillus thuringiensis BT01 assessed as inhibition of bacterial growth incubated for 16 to 18 hrs by broth micro dilution technique; type: functional; conditions: time 16-18 hrs
HL-60 = assay: Cytotoxicity against human HL-60 cells assessed as growth inhibition incubated for 68 hrs by MTT assay; type: functional, cell-based; conditions: HL-60, 68 h
HeLa = assay: Cytotoxicity against human HeLa cells assessed as growth inhibition incubated for 68 hrs by MTT assay; type: functional, cell-based
HepG2 = assay: Cytotoxicity against human HepG2 cells assessed as growth inhibition incubated for 68 hrs by MTT assay; type: functional, cell-based; conditions: HepG2, 68 h
L02 = assay: Cytotoxicity against human L02 cells assessed as growth inhibition incubated for 68 hrs by MTT assay; type: cell-based; conditions: L02, 68 h
BEAS-2B = assay: Cytotoxicity against human BEAS-2B cells assessed as growth inhibition incubated for 68 hrs by MTT assay; type: cell-based
Staphylococcus aureus [8] = assay: Antimicrobial activity against Staphylococcus aureus Sau 1862 assessed as inhibition of bacterial growth incubated for 16 to 18 hrs by broth micro dilution technique; type: functional; conditions: time 16-18 hrs

Row | SMILES | MIC (Staphylococcus aureus [1]) [µg/mL] | MIC (Staphylococcus aureus [2]) [µg/mL] | MIC (Micrococcus luteus) [µg/mL] | MIC (Candida albicans) [µg/mL] | MIC (Staphylococcus aureus [3]) [µg/mL] | MIC (Staphylococcus aureus [4]) [µg/mL] | MIC (Staphylococcus aureus [5]) [µg/mL] | MIC (Enterococcus faecalis) [µg/mL] | MIC (Enterococcus faecium) [µg/mL] | MIC (Staphylococcus aureus [6]) [µg/mL] | MIC (Staphylococcus aureus [7]) [µg/mL] | MIC (Bacillus thuringiensis) [µg/mL] | MIC (Staphylococcus aureus [8]) [µg/mL] | IC50 (RKO) [nM] | IC50 (MCF7) [nM] | IC50 (A549) [nM] | IC50 (HL-60) [nM] | IC50 (HeLa) [nM] | IC50 (HepG2) [nM] | IC50 (L02) [nM] | other results
1 | CC(C)[C@H]1C(=O)O[C@H](C)[C@H](NC(=O)c2c3nc4c(C(=O)N[C@@H]5C(=O)N[C@H](C(C)C)C(=O)N6CCC[C@H]6C(=O)N(C)CC(=O)N(C)[C@@H](C(C)C)C(=O)O[C@@H]5C)ccc(Br)c4oc-3c(Br)c(=O)c2N)C(=O)N[C@H](C(C)C)C(=O)N2CCC[C@H]2C(=O)N(C)CC(=O)N1C | 8 (≈ 5.78 µM) | 8 (≈ 5.78 µM) | < 0.06 | 16 (≈ 11.6 µM) | 16 (≈ 11.6 µM) | 16 (≈ 11.6 µM) | 8 (≈ 5.78 µM) | 16 (≈ 11.6 µM) | 0.13 (≈ 0.0939 µM) | 8 (≈ 5.78 µM) | 8 (≈ 5.78 µM) | 0.25 (≈ 0.18 µM) | 8 (≈ 5.78 µM) | 1500 | 1500 | 1100 | 40 | 6200 | 2400 | 17600 | IC50 (BEAS-2B): 2200 nM
2 | CC1(C)S[C@@H]2[C@H](NC(=O)[C@H](N)c3ccccc3)C(=O)N2[C@H]1C(=O)O [AMPICILLIN] |  | > 64 | 0.13 (≈ 0.372 µM) | 0.13 (≈ 0.372 µM) | 64 (≈ 183 µM) | 8 (≈ 22.9 µM) |  | 32 (≈ 91.6 µM) | > 64 | 2 (≈ 5.72 µM) | 1 (≈ 2.86 µM) | 2 (≈ 5.72 µM) | 8 (≈ 22.9 µM) |  |  |  |  |  |  |  | 
3 | CC(C)[C@H]1C(=O)O[C@H](C)[C@H](NC(=O)c2c3nc4c(C(=O)N[C@@H]5C(=O)N[C@H](C(C)C)C(=O)N6CCC[C@H]6C(=O)N(C)CC(=O)N(C)[C@@H](C(C)C)C(=O)O[C@@H]5C)ccc(I)c4oc-3c(I)c(=O)c2N)C(=O)N[C@H](C(C)C)C(=O)N2CCC[C@H]2C(=O)N(C)CC(=O)N1C | 2 (≈ 1.35 µM) | 4 (≈ 2.7 µM) | < 0.06 | 0.13 (≈ 0.0879 µM) | 4 (≈ 2.7 µM) | 4 (≈ 2.7 µM) | 2 (≈ 1.35 µM) | 2 (≈ 1.35 µM) | 0.06 (≈ 0.0406 µM) | 2 (≈ 1.35 µM) | 4 (≈ 2.7 µM) | 0.13 (≈ 0.0879 µM) | 2 (≈ 1.35 µM) | 200 | 1100 | 5000 | 50 | 200 | 100 | 1500 | IC50 (BEAS-2B): 500 nM

Further lines, with some results ahead:

Row | MIC (Staphylococcus aureus [1]) [µg/mL] | MIC (Staphylococcus aureus [2]) [µg/mL] | MIC (Micrococcus luteus) [µg/mL] | MIC (Candida albicans) [µg/mL] | MIC (Staphylococcus aureus [3]) [µg/mL] | MIC (Staphylococcus aureus [4]) [µg/mL] | MIC (Staphylococcus aureus [5]) [µg/mL] | MIC (Enterococcus faecalis) [µg/mL] | MIC (Enterococcus faecium) [µg/mL] | MIC (Staphylococcus aureus [6]) [µg/mL] | MIC (Staphylococcus aureus [7]) [µg/mL] | MIC (Bacillus thuringiensis) [µg/mL] | MIC (Staphylococcus aureus [8]) [µg/mL] | SMILES | IC50 (RKO) [nM] | IC50 (MCF7) [nM] | IC50 (A549) [nM] | IC50 (HL-60) [nM] | IC50 (HeLa) [nM] | IC50 (HepG2) [nM] | IC50 (L02) [nM] | other results
4 | 1 (≈ 0.739 µM) | 1 (≈ 0.739 µM) | 0.06 (≈ 0.0443 µM) | 0.5 (≈ 0.369 µM) | 4 (≈ 2.96 µM) | 1 (≈ 0.739 µM) | 1 (≈ 0.739 µM) | 2 (≈ 1.48 µM) | 0.5 (≈ 0.369 µM) | 0.5 (≈ 0.369 µM) | 1 (≈ 0.739 µM) | 0.25 (≈ 0.185 µM) | 2 (≈ 1.48 µM) | CC(C)[C@H]1C(=O)O[C@H](C)[C@H](NC(=O)c2c3nc4c(C(=O)N[C@@H]5C(=O)N[C@H](C(C)C)C(=O)N6CCC[C@H]6C(=O)N(C)CC(=O)N(C)[C@@H](C(C)C)C(=O)O[C@@H]5C)ccc(I)c4oc-3cc(=O)c2N)C(=O)N[C@H](C(C)C)C(=O)N2CCC[C@H]2C(=O)N(C)CC(=O)N1C | 100 | 2000 | 9000 | 70 | 4400 | 100 | 1700 | IC50 (BEAS-2B): 500 nM
5 | 8 (≈ 6.34 µM) | 16 (≈ 12.7 µM) | 0.25 (≈ 0.198 µM) | 8 (≈ 6.34 µM) | 32 (≈ 25.4 µM) | 16 (≈ 12.7 µM) | 8 (≈ 6.34 µM) | 16 (≈ 12.7 µM) | 2 (≈ 1.59 µM) | 8 (≈ 6.34 µM) | 16 (≈ 12.7 µM) | 4 (≈ 3.17 µM) | 8 (≈ 6.34 µM) | CC(C)[C@H]1C(=O)O[C@H](C)[C@H](NC(=O)c2c3nc4c(C(=O)N[C@@H]5C(=O)N[C@H](C(C)C)C(=O)N6CCC[C@H]6C(=O)N(C)CC(=O)N(C)[C@@H](C(C)C)C(=O)O[C@@H]5C)cccc4oc-3c(Cl)c(=O)c2N)C(=O)N[C@H](C(C)C)C(=O)N2CCC[C@H]2C(=O)N(C)CC(=O)N1C |  |  |  |  |  |  |  | 
